{
  "source": "paper PMC7070682",
  "about": "“Alpha-Glucosidase- and Lipase-Inhibitory Phenalenones from a New Species of Pseudolophiostoma Originating from Thailand” (Molecules, 2020)",
  "key": {"α-glucosidase": {"biological_target": "α-glucosidase", "assay": "α-Glucosidase assay (p-NPG substrate)", "assay_type": "biochemical", "procedure": "α-Glucosidase assay. The substrates p-nitrophenyl α-glucopyranoside (p-NPG) and α-glucosidase were purchased from Sigma (St. Louis, USA). […] The standard assay protocol established by the Enzyme Inhibition Laboratory was adopted with minor modifications. First, 0.85 units/mL enzyme and 0.7mM of substrate were used for the initial screening of the fungal extracts, and 100mM sodium phosphate buffer containing 50 mM NaCl was prepared in deionized water (pH 6.8). The change in the absorbance was monitored initially before incubation and 30 min after the addition of p-NPG substrate. Percentage inhibition of enzyme by various test compounds was calculated using the formula: % inhibition= (ABS of Blank −ABS of Sample)/ABS of Blank× 100"}, "porcine lipase": {"biological_target": "T1, porcine lipase (Sus scrofa, UniProt P00591)", "T1 sequence (P00591 1-450)": "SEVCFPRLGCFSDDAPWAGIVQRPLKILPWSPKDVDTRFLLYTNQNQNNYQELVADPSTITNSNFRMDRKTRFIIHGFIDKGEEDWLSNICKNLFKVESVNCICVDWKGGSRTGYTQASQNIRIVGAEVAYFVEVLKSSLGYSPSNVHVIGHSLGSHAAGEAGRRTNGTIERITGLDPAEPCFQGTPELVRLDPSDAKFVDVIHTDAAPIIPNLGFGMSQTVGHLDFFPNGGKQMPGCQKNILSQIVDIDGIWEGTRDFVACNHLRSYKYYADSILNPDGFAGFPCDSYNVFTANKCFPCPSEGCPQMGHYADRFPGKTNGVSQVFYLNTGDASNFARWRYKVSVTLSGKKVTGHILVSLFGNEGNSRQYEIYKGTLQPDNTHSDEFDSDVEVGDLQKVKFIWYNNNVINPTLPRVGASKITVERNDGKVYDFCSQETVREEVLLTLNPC", "assay": "Pancreatic lipase assay (p-nitrophenyl butyrate hydrolysis)", "assay_type": "biochemical", "details": "for pIC50: p-nitrophenyl butyrate substrate", "procedure": "Pancreatic Lipase Assay. […] Thirty five microliters of each test compound in DMSO, 15 µL of pancreatic lipase enzyme (1 mg/mL buffer), and 45 µL Tris-HCl buffer (2.5 mmol Tris, pH = 7.4 and 2.5 mmol NaCl) were mixed in a 96 well microtiter plate and incubated at 25 °C for 15 min. The enzymatic hydrolysis was started upon the addition of 15 µL p-nitrophenyl butyrate (p-NPB). The number of p-nitrophenolate ions generated by the reaction was monitored using microplate reader, measured before incubation and 30 min after the addition of the substrate with corresponding change in absorbance at 405 nm."}, "[1]": {"test_system": "mouse fibroblast (L929) cells", "assay": "Cytotoxicity assessment vs. L929", "assay_type": "cell-based", "procedure": "(§1) To verify the predicted toxicity of compounds 1–3, a cytotoxicity assessment (Table 4) was performed against mouse fibroblast (L929) and HeLa (KB3.1) cells, as previously reported.\n(§2) The cytotoxic effects of the compounds were evaluated using a standard procedure."}, "HeLa (KB3.1) cells": {"test_system": "HeLa (KB3.1) cells", "assay": "Cytotoxicity assessment vs. KB3.1", "assay_type": "cell-based", "details": "Homo sapiens, KB 3-1", "procedure": "as §1, §2"}, "[2]": {"parameters": "method as in PMID 21923104", "details": "previously shown; cited from earlier work"}},
  "note": "pIC50: −log10 of the molar value.",
  "data": [
    {"smiles": "Cc1cc(O)c2c3c(c(O)c4c(c13)O[C@@H](C)C4(C)C)C(=O)C(=O)O2", "note": "[Compound 1, scleroderolide]", "values": [
      {"measurement": "pIC50", "setting": "α-glucosidase", "value": 4.31},
      {"measurement": "pIC50", "setting": "porcine lipase", "value": 5.47},
      {"measurement": "IC50", "setting": "[1]", "value": 15, "unit": "µg/mL"},
      {"measurement": "IC50", "setting": "HeLa (KB3.1) cells", "value": 21, "unit": "µg/mL"}
    ]},
    {"smiles": "Cc1cc(O)c2c3c(c(O)c4c(c13)O[C@@H](C)C4(C)C)C(=O)C2=O", "note": "[Compound 2, sclerodione]", "values": [
      {"measurement": "pIC50", "setting": "α-glucosidase", "value": 3.92},
      {"measurement": "pIC50", "setting": "porcine lipase", "value": 6.00},
      {"measurement": "times more potent than orlistat (lipase inhibition)", "setting": "porcine lipase; relative to positive control orlistat", "value": 9, "unit": "times"},
      {"measurement": "IC50", "setting": "[1]", "value": 27, "unit": "µg/mL"},
      {"measurement": "IC50", "setting": "HeLa (KB3.1) cells", "value": 18, "unit": "µg/mL"},
      {"measurement": "antimicrobial activities", "setting": "[2]", "value": "moderate"}
    ]},
    {"smiles": "Cc1cc(O)cc2c1C1=C(C(=O)C2=O)C(C)(C)[C@H](C)O1", "note": "[Compound 3, trypethelone]", "values": [
      {"measurement": "pIC50", "setting": "α-glucosidase", "value": "< 4.00"},
      {"measurement": "pIC50", "setting": "porcine lipase", "value": "< 4.00"},
      {"measurement": "IC50", "setting": "[1]", "value": 2.7, "unit": "µg/mL"},
      {"measurement": "IC50", "setting": "HeLa (KB3.1) cells", "value": 4.2, "unit": "µg/mL"}
    ]},
    {"smiles": "C/C(=C\\c1csc(C)n1)[C@@H]1C[C@@H]2O[C@]2(C)CCC[C@H](C)[C@H](O)[C@@H](C)C(=O)C(C)(C)[C@@H](O)CC(=O)O1", "note": "[Epothilone B, reference compound]", "values": [
      {"measurement": "IC50", "setting": "[1]", "value": 0.0009, "unit": "µg/mL"},
      {"measurement": "IC50", "setting": "HeLa (KB3.1) cells", "value": "4e-05", "unit": "µg/mL"}
    ]}
  ]
}
